In US8722910B2, “Diyne compositions” (Evolva AG, priority 2009, dated 2014):
Converted amounts (≈) assume the structure as drawn.

What was measured:
[1] = test system: C. albicans, Fluconazole, Voriconazole, Itraconazole and/or Caspofungin resistant isolates; experiment: Susceptibility of resistant clinical isolates (MIC, broth dilution); type: cell-based; settings: for MIC90: Candida albicans
[2] = test system: C. glabrata, Fluconazole, Voriconazole, Itraconazole and/or Caspofungin resistant isolates; experiment: as above; type: cell-based; settings: for MIC90: Nakaseomyces glabratus
Experimental: The efficacy of compound IV″ was investigated on 563 clinical isolates of 33 human fungal pathogens. […] For species with n≧10, the MIC90 (MIC, minimal inhibitory concentration) is given as ng/ml. For species with n≦10, the MIC range is given as ng/ml. 24 h and 48 h reads are indicated (Table 1).
The MIC90 was calculated for the indicated species.

With `O=C([O-])CCCCCCC/C=C\C#CC#Cc1ccco1.[K+]` [Compound IV″, potassium (Z)-14-(furan-2-yl)tetradeca-9-en-11,13-diynoate] the MIC90 [1] was 0.0025 µg/mL, the “MIC90/MIC range 48 h” value ([1]; resistant C. albicans isolates (n = 20), MIC90, 48 h) was 0.0025 µg/mL and the MIC90 [2] was 0.02 µg/mL. For the same molecule, the “MIC90/MIC range 48 h” value ([2]; resistant C. glabrata isolates (n = 21), MIC90, 48 h) was 0.02 µg/mL.

`C[C@@H](c1ncncc1F)[C@](O)(Cn1cncn1)c1ccc(F)cc1F` [Voriconazole] gave an MIC90 [1] greater than 0.5 µg/mL and an MIC90 [2] of 0.5 µg/mL (≈ 1.43 µM).
